Data: patent publication US20250296971A1, “GASTRIC INHIBITORY PEPTIDE RECEPTOR LIGANDS” (priority 2021, published 2025)
*1 amine or outer side, *2 acyl side, *3 side chain or, on linkers, in order; H or OH if unused. Where a SMILES comes first, the peptide text is derived from it. Bridges are numbered along the chain shown (N, C = ends). Side-chain parts run from the residue outwards. [ ]: non-standard residue; d: D form. The star is where a group is joined. X16 = NC(=O)[C@H](CCCCNC(=O)CN1CCN2CCN3CCN(CC1)CC(=O)[O][Lu]([O]C(=O)C2)[O]C(=O)C3)NC(=O)CCC(=O)NCCCOCCOCCOCCCN*; DOTA(Lu) = O=C1CN2CCN3CCN(CC(=O)*)CCN(CC2)CC(=O)[O][Lu]([O]1)[O]C(=O)C3; X18 = O=C(CCN(CC(=O)[*:2])[*:1])NC[C@H](O)[C@@H](O)[C@H](O)[C@H](O)CO; NH(1-deoxy-D-glucityl) = OC[C@@H](O)[C@@H](O)[C@H](O)[C@@H](O)CN*; Pro(trans-4-NH2) = O=C([C@@H]1C[C@@H](N[*:3])CN1[*:1])[*:2]; Trp(5-Cl) = N[C@@H](Cc1c[nH]c2ccc(Cl)cc12)C(=O)O; Pyridine(2,6-diCH2) = c1cc(C[*:1])nc(C[*:2])c1; X24 = OC[C@H](CSCc1cccc(C[*:1])n1)N[*:2]; 1Nal = N[C@@H](Cc1cccc2ccccc12)C(=O)O; mXylylene = c1cc(C[*:1])cc(C[*:2])c1; Glutaryl = O=C(CCCC(=O)[*:2])[*:1]; X6 = c1cc(CSCCN[*:2])nc(C[*:1])c1; Hyp = O=C(O)[C@@H]1C[C@@H](O)CN1; X1 = O=C(CN1CCC(N[*:1])CC1)[*:2]; Suc = O=C(CCC(=O)[*:2])[*:1]; Ac6c = NC1(C(=O)O)CCCCC1; Api = NC1(C(=O)O)CCNCC1; Thp = NC1(C(=O)O)CCOCC1; Aib = CC(C)(N)C(=O)O; Sar = CNCC(=O)O

Target: T1, GIPR (CHO-K1-hGIPR cells) (Homo sapiens, UniProt P48546)
T1 construct: host or cells: CHO-K1
T1 sequence (P48546 22-466): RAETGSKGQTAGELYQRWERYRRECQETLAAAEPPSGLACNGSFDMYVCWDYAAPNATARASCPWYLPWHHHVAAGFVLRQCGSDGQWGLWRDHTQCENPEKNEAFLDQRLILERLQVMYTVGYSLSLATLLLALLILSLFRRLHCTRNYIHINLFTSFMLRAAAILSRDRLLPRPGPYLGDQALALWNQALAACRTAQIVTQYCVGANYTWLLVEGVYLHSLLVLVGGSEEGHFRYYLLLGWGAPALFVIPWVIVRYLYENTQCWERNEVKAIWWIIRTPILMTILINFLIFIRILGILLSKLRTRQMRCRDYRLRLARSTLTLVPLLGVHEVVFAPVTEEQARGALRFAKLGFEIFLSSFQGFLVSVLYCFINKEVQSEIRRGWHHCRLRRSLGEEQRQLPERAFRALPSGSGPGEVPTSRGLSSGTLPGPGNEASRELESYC
Test: FACS binding assay
Details: competition with 20 nM GIP-057, 4° C., 1 hour, read-out: pIC50 Category (converted)
Summary of the method: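 CHO-K1 cells stably expressing human GIPR were detached with Accutase, suspended at 500.000 cells per mL in PBS with 1% FCS, and washed ice-cold. Bound peptide was detected with 1 μg/mL APC-streptavidin for 30 min on ice.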

IC50 [µM] | SMILES
< 0.01 | CC[C@H](C)[C@@H]1NC(=O)[C@H](CC(C)C)NC(=O)C2(CCOCC2)NC(=O)[C@@H](NC(=O)[C@@H](CC(C)C)NC(=O)[C@H](CCC(=O)O)NC(=O)[C@@H]2C[C@@H](O)CN2C(=O)[C@H](Cc2c[nH]c3ccc(Cl)cc23)NC(=O)[C@H](Cc2c[nH]c3ccccc23)NC(=O)[C@H](CC(=O)O)NC(=O)CCCC(=O)NC[C@H](O)[C@@H](O)[C@H](O)[C@H](O)CO)CSCc2cccc(n2)CSC[C@@H](C(=O)NC2CCN(CC(=O)N[C@H](CCC(=O)NC[C@H](O)[C@@H](O)[C@H](O)[C@H](O)CO)C(N)=O)CC2)NC1=O [GIP-174, AGLU-Glutar-Asp-Trp-5Clw-Hyp-Glu-leu-[Cys(2Lut)-Thp-Leu-Ile-Cys]-APAc-glu(AGLU)-NH2] ({NH(1-deoxy-D-glucityl)-Glutaryl}-DW[Trp(5-Cl)][Hyp]E[dL]C[Thp]LIC[X1][dE](NH(1-deoxy-D-glucityl))-NH2; linker 7-11 via Pyridine(2,6-diCH2))
< 0.01 | CC[C@H](C)[C@@H]1NC(=O)[C@H](CC(C)C)NC(=O)C2(CCOCC2)NC(=O)[C@@H](NC(=O)[C@@H](CC(C)C)NC(=O)[C@H](CCC(=O)O)NC(=O)[C@@H]2C[C@@H](NC(=O)CCCC(=O)NC[C@H](O)[C@@H](O)[C@H](O)[C@H](O)CO)CN2C(=O)[C@H](Cc2c[nH]c3ccc(Cl)cc23)NC(=O)[C@H](Cc2c[nH]c3ccccc23)NC(=O)[C@H](CC(=O)O)NC(C)=O)CSCc2cccc(n2)CSC[C@@H](C(N)=O)NC1=O [GIP-175, Ac-Asp-Trp-5Clw-Tap (AGLU-Glutar)-Glu-leu-[Cys(2Lut)-Thp-Leu-Ile-Cys]-NH2] (Ac-DW[Trp(5-Cl)][Pro(trans-4-NH2)]([Glutaryl-NH(1-deoxy-D-glucityl)])E[dL]C[Thp]LIC-NH2; linker 7-11 via Pyridine(2,6-diCH2))
< 0.01 | CC[C@H](C)[C@@H]1NC(=O)[C@H](CC(C)C)NC(=O)C2(CCOCC2)NC(=O)[C@@H](NC(=O)[C@@H](CC(C)C)NC(=O)[C@H](CCC(=O)O)NC(=O)CN(CCC(=O)NC[C@H](O)[C@@H](O)[C@H](O)[C@H](O)CO)C(=O)[C@H](Cc2c[nH]c3ccc(Cl)cc23)NC(=O)[C@H](Cc2c[nH]c3ccccc23)NC(=O)[C@H](CC(=O)O)NC(C)=O)CSCc2cccc(n2)CSC[C@@H](C(N)=O)NC1=O [GIP-176, Ac-Asp-Trp-5Clw-Nglu(AGLU)-Glu-leu-[Cys(2Lut)-Thp-Leu-Ile-Cys]-NH2] (Ac-DW[Trp(5-Cl)][X18]E[dL]C[Thp]LIC-NH2; linker 7-11 via Pyridine(2,6-diCH2))
< 0.01 | CC[C@H](C)[C@@H]1NC(=O)[C@H](CC(C)C)NC(=O)C2(CCOCC2)NC(=O)[C@@H](NC(=O)[C@@H](CC(C)C)NC(=O)[C@H](CCC(=O)O)NC(=O)[C@@H]2C[C@@H](O)CN2C(=O)[C@H](Cc2c[nH]c3ccc(Cl)cc23)NC(=O)[C@H](Cc2c[nH]c3ccccc23)NC(=O)[C@H](CC(=O)O)NC(C)=O)CSCc2cccc(n2)CSC[C@@H](C(=O)NC2CCN(CC(=O)N[C@H](CCC(=O)NC[C@H](O)[C@@H](O)[C@H](O)[C@H](O)CO)C(N)=O)CC2)NC1=O [GIP-177, Ac-Asp-Trp-5Clw-Hyp-Glu-leu-[Cys(2Lut)-Thp-Leu-Ile-Cys]-APAc-glu(AGLU)-NH2] (Ac-DW[Trp(5-Cl)][Hyp]E[dL]C[Thp]LIC[X1][dE](NH(1-deoxy-D-glucityl))-NH2; linker 7-11 via Pyridine(2,6-diCH2))
< 0.01 | CC[C@H](C)[C@@H]1NC(=O)[C@H](CC(C)C)NC(=O)C2(CCOCC2)NC(=O)[C@@H](NC(=O)[C@@H](CC(C)C)NC(=O)[C@H](CCC(=O)O)NC(=O)[C@@H]2C[C@@H](O)CN2C(=O)[C@H](Cc2c[nH]c3ccc(Cl)cc23)NC(=O)[C@H](Cc2c[nH]c3ccccc23)NC(=O)[C@H](CC(=O)O)NC(=O)CCCC(=O)NC[C@H](O)[C@@H](O)[C@H](O)[C@H](O)CO)CSCc2cccc(n2)CSC[C@@H](C(N)=O)NC1=O [GIP-178, AGLU-Glutar-Asp-Trp-5Clw-Hyp-Glu-leu-[Cys(2Lut)-Thp-Leu-Ile-Cys]-NH2] ({NH(1-deoxy-D-glucityl)-Glutaryl}-DW[Trp(5-Cl)][Hyp]E[dL]C[Thp]LIC-NH2; linker 7-11 via Pyridine(2,6-diCH2))
< 0.01 | CC[C@H](C)[C@@H]1NC(=O)[C@H](CC(C)C)NC(=O)C2(CCOCC2)NC(=O)[C@@H](NC(=O)[C@@H](CC(C)C)NC(=O)[C@H](CCC(=O)O)NC(=O)[C@@H]2C[C@@H](O)CN2C(=O)[C@H](Cc2c[nH]c3ccc(Cl)cc23)NC(=O)[C@H](Cc2c[nH]c3ccccc23)NC(=O)[C@H](CC(=O)O)NC(C)=O)CSCc2cccc(n2)CSC[C@@H](C(N)=O)NC1=O [GIP-180, Ac-Asp-Trp-5Clw-Hyp-Glu-leu-[Cys(2Lut)-Thp-Leu-Ile-Cys]-NH2] (Ac-DW[Trp(5-Cl)][Hyp]E[dL]C[Thp]LIC-NH2; linker 7-11 via Pyridine(2,6-diCH2))
< 0.01 | CC[C@H](C)[C@@H]1NC(=O)[C@H](CC(C)C)NC(=O)C2(CCOCC2)NC(=O)[C@@H](NC(=O)[C@@H](CC(C)C)NC(=O)[C@H](CCC(=O)O)NC(=O)[C@@H]2C[C@@H](O)CN2C(=O)[C@H](Cc2c[nH]c3ccc(Cl)cc23)NC(=O)[C@H](Cc2c[nH]c3ccccc23)NC(=O)[C@H](CC(=O)O)NC(C)=O)CSCc2cccc(n2)CSC[C@@H](CO)NC1=O [GIP-182, Ac-Asp-Trp-5Clw-Hyp-Glu-leu-[Cys(2Lut)-Thp-Leu-Ile-Cysol]-OH] (Ac-DW[Trp(5-Cl)][Hyp]E[dL]C[Thp]LI; linker 7-C via X24)
< 0.01 | CC[C@H](C)[C@@H]1NC(=O)[C@H](CC(C)C)NC(=O)C2(CCOCC2)NC(=O)[C@@H](NC(=O)[C@@H](CC(C)C)NC(=O)[C@H](CCC(=O)O)NC(=O)CN(C)C(=O)[C@H](Cc2c[nH]c3ccc(Cl)cc23)NC(=O)[C@H](Cc2c[nH]c3ccccc23)NC(=O)[C@H](CC(=O)O)NC(C)=O)CSCc2cccc(n2)CSC[C@@H](C(N)=O)NC1=O [GIP-183, Ac-Asp-Trp-5Clw-Nmg-Glu-leu-[Cys(2Lut)-Thp-Leu-Ile-Cys]-NH2] (Ac-DW[Trp(5-Cl)][Sar]E[dL]C[Thp]LIC-NH2; linker 7-11 via Pyridine(2,6-diCH2))

Same assay, conditions: pIC50 Category, competition with 20 nM GIP-057, 4° C., 1 hour

SMILES | IC50 [µM]
CC[C@H](C)[C@@H]1NC(=O)[C@H](CC(C)C)NC(=O)C2(CCOCC2)NC(=O)[C@@H](NC(=O)[C@@H](CC(C)C)NC(=O)[C@H](CCC(=O)O)NC(=O)[C@@H]2C[C@@H](O)CN2C(=O)[C@H](Cc2c[nH]c3ccc(Cl)cc23)NC(=O)[C@H](Cc2c[nH]c3ccccc23)NC(=O)CCC(=O)O)CSCc2cccc(n2)CSC[C@@H](C(=O)NC2CCN(CC(=O)N[C@@H](CCCCNC(=O)CN3CCN4CCN5CCN(CC3)CC(=O)[O][Lu]([O]C(=O)C4)[O]C(=O)C5)C(N)=O)CC2)NC1=O [GIP-170, HO-Succinyl-Trp-5Clw-Hyp-Glu-leu-[Cys(2Lut)-Thp-Leu-Ile-Cys]-APAc-Lys(LuDOTA)-NH2] (Suc-W[Trp(5-Cl)][Hyp]E[dL]C[Thp]LIC[X1]K(DOTA(Lu))-NH2; linker 6-10 via Pyridine(2,6-diCH2)) | < 0.01
CC[C@H](C)[C@@H]1NC(=O)[C@H](CC(C)C)NC(=O)C2(CCN(C(=O)CN3CCN4CCN5CCN(CC3)CC(=O)[O][Lu]([O]C(=O)C5)[O]C(=O)C4)CC2)NC(=O)[C@@H](NC(=O)[C@@H](CC(C)C)NC(=O)[C@H](CCC(=O)O)NC(=O)[C@@H]2C[C@@H](O)CN2C(=O)[C@H](Cc2c[nH]c3ccc(Cl)cc23)NC(=O)[C@H](Cc2c[nH]c3ccccc23)NC(=O)CCC(=O)O)CSCc2cccc(n2)CSCCNC1=O [GIP-171, HO-Succinyl-Trp-5Clw-Hyp-Glu-leu-[Cys(2Lut)-Apc(LuDOTA)-Leu-Ile-AET]] (Suc-W[Trp(5-Cl)][Hyp]E[dL]C[Api](DOTA(Lu))LI; linker 6-C via X6) | < 0.01
CC[C@H](C)[C@@H]1NC(=O)[C@H](CC(C)C)NC(=O)C(C)(C)NC(=O)[C@@H](NC(=O)[C@@H](CC(C)C)NC(=O)[C@H](CCC(=O)O)NC(=O)[C@@H]2CCCN2C(=O)[C@H](Cc2cccc3ccccc23)NC(=O)[C@H](Cc2c[nH]c3ccccc23)NC(=O)[C@H](CC(=O)O)NC(C)=O)CSCc2cccc(c2)CSC[C@@H](C(=O)NCCCOCCOCCOCCCNC(=O)CCC(=O)N[C@@H](CCCCNC(=O)CN2CCN3CCN4CCN(CC2)CC(=O)[O][Lu]([O]C(=O)C3)[O]C(=O)C4)C(N)=O)NC1=O [GIP-172, Ac-Asp-Trp-1Ni-Pro-Glu-leu-[Cys(3MeBn)-Aib-Leu-Ile-Cys]-Ttds-Lys(LuDOTA)-NH2] (Ac-DW[1Nal]PE[dL]C[Aib]LIC-X16; linker 7-11 via mXylylene) | 0.01 to 0.0794
CC[C@H](C)[C@@H]1NC(=O)[C@H](CC(C)C)NC(=O)C2(CCCCC2)NC(=O)[C@@H](NC(=O)[C@@H](CC(C)C)NC(=O)[C@H](CCC(=O)O)NC(=O)[C@@H]2CCCN2C(=O)[C@H](Cc2cccc3ccccc23)NC(=O)[C@H](Cc2c[nH]c3ccccc23)NC(=O)[C@H](CC(=O)O)NC(C)=O)CSCc2cccc(c2)CSC[C@@H](C(=O)NCCCOCCOCCOCCCNC(=O)CCC(=O)N[C@@H](CCCCNC(=O)CN2CCN3CCN4CCN(CC2)CC(=O)[O][Lu]([O]C(=O)C3)[O]C(=O)C4)C(N)=O)NC1=O [GIP-173, Ac-Asp-Trp-1Ni-Pro-Glu-leu-[Cys(3MeBn)-Egz-Leu-Ile-Cys]-Ttds-Lys(LuDOTA)-NH2] (Ac-DW[1Nal]PE[dL]C[Ac6c]LIC-X16; linker 7-11 via mXylylene) | 0.01 to 0.0794
